According to a compilation of properties of binary mixtures (doi:10.1007/s11426-012-4655-1):

Test: xn = mol fraction of the nth substance listed
Conditions: 101 kPa

CCCCCC[n+]1ccn(C)c1.F[P-](F)(F)(F)(F)F + CCCCCC[n+]1ccn(C)c1.[Cl-]
electrical conductivity (303 K, x2 = 0): 0.0747 S/m
electrical conductivity (303 K, x2 = 0.2): 0.0399 S/m
electrical conductivity (303 K, x2 = 0.4): 0.0205 S/m
electrical conductivity (303 K, x2 = 0.6): 0.0104 S/m
electrical conductivity (303 K, x2 = 0.8): 0.0054 S/m
viscosity (303.15 K, x2 = 0): 500 mPa·s
electrical conductivity (308 K, x2 = 0): 0.0993 S/m
electrical conductivity (308 K, x2 = 0.2): 0.0556 S/m
electrical conductivity (308 K, x2 = 0.6): 0.0158 S/m
electrical conductivity (308 K, x2 = 0.8): 0.0086 S/m
viscosity (308.15 K, x2 = 0.2): 680 mPa·s
viscosity (308.15 K, x2 = 0.4): 1238 mPa·s
electrical conductivity (313 K, x2 = 0.2): 0.0751 S/m
electrical conductivity (313 K, x2 = 0.6): 0.0235 S/m
electrical conductivity (313 K, x2 = 0.8): 0.0133 S/m
viscosity (313.15 K, x2 = 0): 273 mPa·s
viscosity (313.15 K, x2 = 0.2): 490 mPa·s
viscosity (313.15 K, x2 = 0.4): 850 mPa·s
viscosity (313.15 K, x2 = 0.6): 1501 mPa·s
electrical conductivity (318 K, x2 = 0): 0.166 S/m
electrical conductivity (318 K, x2 = 0.2): 0.1 S/m
electrical conductivity (318 K, x2 = 0.4): 0.0584 S/m
electrical conductivity (318 K, x2 = 0.8): 0.0199 S/m
viscosity (318.15 K, x2 = 0): 208 mPa·s
viscosity (318.15 K, x2 = 0.2): 360 mPa·s
viscosity (318.15 K, x2 = 0.6): 1014 mPa·s
electrical conductivity (323 K, x2 = 0): 0.21 S/m
electrical conductivity (323 K, x2 = 0.2): 0.131 S/m
electrical conductivity (323 K, x2 = 0.4): 0.0793 S/m
electrical conductivity (323 K, x2 = 0.6): 0.0476 S/m
electrical conductivity (323 K, x2 = 0.8): 0.0291 S/m
viscosity (323.15 K, x2 = 0): 162 mPa·s
viscosity (323.15 K, x2 = 0.2): 268 mPa·s
viscosity (323.15 K, x2 = 0.4): 430 mPa·s
viscosity (323.15 K, x2 = 0.8): 1154 mPa·s
electrical conductivity (328 K, x2 = 0.2): 0.166 S/m
electrical conductivity (328 K, x2 = 0.4): 0.105 S/m
electrical conductivity (328 K, x2 = 0.6): 0.0648 S/m
viscosity (328.15 K, x2 = 0): 128 mPa·s
viscosity (328.15 K, x2 = 0.4): 322 mPa·s
viscosity (328.15 K, x2 = 0.6): 500 mPa·s
viscosity (328.15 K, x2 = 0.8): 790 mPa·s
electrical conductivity (333 K, x2 = 0): 0.319 S/m
electrical conductivity (333 K, x2 = 0.2): 0.21 S/m
electrical conductivity (333 K, x2 = 0.4): 0.137 S/m
electrical conductivity (333 K, x2 = 0.6): 0.0875 S/m
electrical conductivity (333 K, x2 = 0.8): 0.0582 S/m
viscosity (333.15 K, x2 = 0): 102 mPa·s
viscosity (333.15 K, x2 = 0.2): 159 mPa·s
viscosity (333.15 K, x2 = 0.4): 242 mPa·s
viscosity (333.15 K, x2 = 0.6): 370 mPa·s
viscosity (333.15 K, x2 = 0.8): 550 mPa·s
